Experimental data published in US10961236B2, “(S)-2-(1-cyclopropylethyl)-5-(4-methyl-2-((6-(2-oxopyrrolidin-1-yl)pyridin-2-yl)amino) thiazol-5-yl)-7-(methylsulfonyl)isoindolin-1-one as a phosphatidylinositol 3-kinase inhibitor” (AstraZeneca AB, priority 2016, dated 2021).

Assays:
Format in all cases: biochemical
[1] = target: recombinant human PI3Kδ (6-His(p110-p85α)) (Homo sapiens (Human), UniProt O00329); assay: Enzymatic activity assay for recombinant human PI3Kδ (ADP-Glo); conditions: 0.6 nM PI3Kδ, 20 μM ATP, 80 μM DiC8-PIP2, ADP-Glo
In short: (§1)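 ADP-Glo luminescence after DiC8-PIP2 (80 μM) phosphorylation with 20 μM ATP in 50 mM Tris pH 7.4, 3 mM MgCl2, 2.1 mM DTT, 0.05% CHAPS at room temperature. Enzyme 1.2 nM PI3Kγ or 0.6 nM PI3Kδ; inhibitors pre-incubated 15 min, then 60 min reaction.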

[2] = target: recombinant human PI3Kα (6-His(p110-p85α)) (Homo sapiens (Human), UniProt P42336); assay: Enzymatic activity assay for recombinant human PI3Kα (ADP-Glo); conditions: 1.2 nM PI3Kα, 20 μM ATP, 80 μM DiC8-PIP2, ADP-Glo
In short: (§2)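 ADP-Glo luminescence after DiC8-PIP2 phosphorylation at RT: 80 μM lipid substrate, 20 μM ATP, 1.2 nM enzyme (0.6 nM for δ) in Tris pH 7.4 with MgCl2, DTT, CHAPS. Compounds pre-incubated 15 min with enzyme, then 60 min reaction; DMSO ≤1%.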

[3] = target: recombinant human PI3Kγ ((aa144-1102)-6His) (Homo sapiens (Human), UniProt P48736); assay: Enzymatic activity assay for recombinant human PI3Kγ (ADP-Glo); conditions: 1.2 nM PI3Kγ, 20 μM ATP, 80 μM DiC8-PIP2, ADP-Glo
In short: as §1

[4] = target: recombinant human PI3Kβ (6-His(p110-p85α)) (Homo sapiens (Human), UniProt P42338); assay: Enzymatic activity assay for recombinant human PI3Kβ (ADP-Glo); conditions: 1.2 nM PI3Kβ, 20 μM ATP, 80 μM DiC8-PIP2, ADP-Glo
In short: as §2

Chain of recombinant human PI3Kβ (6-His(p110-p85α)) (P42338 whole entry): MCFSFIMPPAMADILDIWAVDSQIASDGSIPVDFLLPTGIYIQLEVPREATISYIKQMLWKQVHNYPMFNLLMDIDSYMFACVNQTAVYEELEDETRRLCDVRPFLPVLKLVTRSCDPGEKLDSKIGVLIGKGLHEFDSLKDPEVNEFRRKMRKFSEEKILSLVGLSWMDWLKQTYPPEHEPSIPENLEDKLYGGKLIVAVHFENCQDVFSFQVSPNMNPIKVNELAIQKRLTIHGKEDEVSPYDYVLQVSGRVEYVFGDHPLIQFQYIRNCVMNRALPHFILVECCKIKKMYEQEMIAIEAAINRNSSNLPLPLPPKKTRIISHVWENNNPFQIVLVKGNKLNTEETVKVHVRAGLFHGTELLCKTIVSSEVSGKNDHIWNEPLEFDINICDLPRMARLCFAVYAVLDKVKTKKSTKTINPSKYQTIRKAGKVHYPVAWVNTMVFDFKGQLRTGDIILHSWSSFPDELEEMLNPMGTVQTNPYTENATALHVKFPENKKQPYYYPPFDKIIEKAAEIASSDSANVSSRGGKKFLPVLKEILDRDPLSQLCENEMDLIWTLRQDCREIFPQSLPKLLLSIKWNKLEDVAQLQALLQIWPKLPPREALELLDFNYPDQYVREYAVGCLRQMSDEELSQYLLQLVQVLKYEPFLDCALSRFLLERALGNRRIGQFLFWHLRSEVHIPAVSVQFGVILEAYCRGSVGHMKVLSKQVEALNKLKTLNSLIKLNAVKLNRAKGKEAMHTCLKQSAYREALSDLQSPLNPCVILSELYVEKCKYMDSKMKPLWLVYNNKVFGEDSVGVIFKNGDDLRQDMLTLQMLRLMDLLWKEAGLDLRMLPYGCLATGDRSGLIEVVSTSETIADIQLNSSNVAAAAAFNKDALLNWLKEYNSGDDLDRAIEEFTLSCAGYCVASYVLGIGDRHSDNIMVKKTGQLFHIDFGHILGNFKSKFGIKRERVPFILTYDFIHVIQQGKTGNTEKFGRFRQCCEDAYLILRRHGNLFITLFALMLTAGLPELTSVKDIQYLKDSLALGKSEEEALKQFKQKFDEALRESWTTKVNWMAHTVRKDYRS
Chain of recombinant human PI3Kβ (6-His(p110-p85α)) (P27986 whole entry partner): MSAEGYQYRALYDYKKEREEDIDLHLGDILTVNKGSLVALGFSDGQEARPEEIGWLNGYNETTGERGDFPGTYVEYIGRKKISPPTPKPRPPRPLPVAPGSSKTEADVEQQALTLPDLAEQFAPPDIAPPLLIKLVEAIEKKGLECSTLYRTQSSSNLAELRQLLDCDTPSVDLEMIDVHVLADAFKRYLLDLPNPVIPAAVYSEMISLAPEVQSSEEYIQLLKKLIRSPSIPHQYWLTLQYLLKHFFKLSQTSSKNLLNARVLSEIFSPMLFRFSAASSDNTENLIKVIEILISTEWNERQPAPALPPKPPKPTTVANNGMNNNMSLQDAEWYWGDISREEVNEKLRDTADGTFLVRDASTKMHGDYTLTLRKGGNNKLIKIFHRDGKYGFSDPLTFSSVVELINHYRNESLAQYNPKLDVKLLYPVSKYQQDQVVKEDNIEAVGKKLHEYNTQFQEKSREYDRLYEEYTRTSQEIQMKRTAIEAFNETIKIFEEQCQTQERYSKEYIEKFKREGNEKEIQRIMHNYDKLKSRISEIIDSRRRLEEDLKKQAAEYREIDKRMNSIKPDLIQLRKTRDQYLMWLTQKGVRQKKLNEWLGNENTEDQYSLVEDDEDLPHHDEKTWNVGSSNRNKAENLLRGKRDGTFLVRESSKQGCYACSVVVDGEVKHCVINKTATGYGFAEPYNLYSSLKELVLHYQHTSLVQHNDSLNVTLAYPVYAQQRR
Chain of recombinant human PI3Kδ (6-His(p110-p85α)) (O00329 whole entry): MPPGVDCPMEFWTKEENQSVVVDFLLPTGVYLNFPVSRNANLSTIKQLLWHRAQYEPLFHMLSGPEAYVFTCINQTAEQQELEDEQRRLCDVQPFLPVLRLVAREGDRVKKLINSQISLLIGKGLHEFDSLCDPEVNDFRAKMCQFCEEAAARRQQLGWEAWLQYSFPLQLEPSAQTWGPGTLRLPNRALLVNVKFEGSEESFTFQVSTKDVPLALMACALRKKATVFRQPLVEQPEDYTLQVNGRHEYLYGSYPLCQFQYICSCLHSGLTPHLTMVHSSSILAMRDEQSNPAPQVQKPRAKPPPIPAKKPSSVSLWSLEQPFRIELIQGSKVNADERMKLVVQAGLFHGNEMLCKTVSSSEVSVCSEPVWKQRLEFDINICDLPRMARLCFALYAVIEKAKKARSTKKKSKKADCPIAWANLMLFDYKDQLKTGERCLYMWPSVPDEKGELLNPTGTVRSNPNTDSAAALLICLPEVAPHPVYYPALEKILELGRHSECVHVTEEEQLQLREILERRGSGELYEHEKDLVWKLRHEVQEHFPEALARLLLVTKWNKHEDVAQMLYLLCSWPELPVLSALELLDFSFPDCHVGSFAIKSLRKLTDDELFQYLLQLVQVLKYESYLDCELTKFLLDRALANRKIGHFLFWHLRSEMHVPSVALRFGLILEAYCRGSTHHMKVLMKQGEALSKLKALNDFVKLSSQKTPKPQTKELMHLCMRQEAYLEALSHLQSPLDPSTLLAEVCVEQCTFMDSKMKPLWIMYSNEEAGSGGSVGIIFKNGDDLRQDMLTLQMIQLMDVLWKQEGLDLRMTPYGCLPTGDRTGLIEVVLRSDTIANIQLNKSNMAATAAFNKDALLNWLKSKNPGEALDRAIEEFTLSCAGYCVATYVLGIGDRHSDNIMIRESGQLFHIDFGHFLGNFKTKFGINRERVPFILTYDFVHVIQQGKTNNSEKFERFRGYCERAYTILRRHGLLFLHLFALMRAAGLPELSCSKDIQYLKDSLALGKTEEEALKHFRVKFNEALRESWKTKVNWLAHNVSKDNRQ
Chain of recombinant human PI3Kδ (6-His(p110-p85α)) (P27986 whole entry partner): as the sequence (P27986 whole entry partner) above
Chain of recombinant human PI3Kα (6-His(p110-p85α)) (P42336 whole entry): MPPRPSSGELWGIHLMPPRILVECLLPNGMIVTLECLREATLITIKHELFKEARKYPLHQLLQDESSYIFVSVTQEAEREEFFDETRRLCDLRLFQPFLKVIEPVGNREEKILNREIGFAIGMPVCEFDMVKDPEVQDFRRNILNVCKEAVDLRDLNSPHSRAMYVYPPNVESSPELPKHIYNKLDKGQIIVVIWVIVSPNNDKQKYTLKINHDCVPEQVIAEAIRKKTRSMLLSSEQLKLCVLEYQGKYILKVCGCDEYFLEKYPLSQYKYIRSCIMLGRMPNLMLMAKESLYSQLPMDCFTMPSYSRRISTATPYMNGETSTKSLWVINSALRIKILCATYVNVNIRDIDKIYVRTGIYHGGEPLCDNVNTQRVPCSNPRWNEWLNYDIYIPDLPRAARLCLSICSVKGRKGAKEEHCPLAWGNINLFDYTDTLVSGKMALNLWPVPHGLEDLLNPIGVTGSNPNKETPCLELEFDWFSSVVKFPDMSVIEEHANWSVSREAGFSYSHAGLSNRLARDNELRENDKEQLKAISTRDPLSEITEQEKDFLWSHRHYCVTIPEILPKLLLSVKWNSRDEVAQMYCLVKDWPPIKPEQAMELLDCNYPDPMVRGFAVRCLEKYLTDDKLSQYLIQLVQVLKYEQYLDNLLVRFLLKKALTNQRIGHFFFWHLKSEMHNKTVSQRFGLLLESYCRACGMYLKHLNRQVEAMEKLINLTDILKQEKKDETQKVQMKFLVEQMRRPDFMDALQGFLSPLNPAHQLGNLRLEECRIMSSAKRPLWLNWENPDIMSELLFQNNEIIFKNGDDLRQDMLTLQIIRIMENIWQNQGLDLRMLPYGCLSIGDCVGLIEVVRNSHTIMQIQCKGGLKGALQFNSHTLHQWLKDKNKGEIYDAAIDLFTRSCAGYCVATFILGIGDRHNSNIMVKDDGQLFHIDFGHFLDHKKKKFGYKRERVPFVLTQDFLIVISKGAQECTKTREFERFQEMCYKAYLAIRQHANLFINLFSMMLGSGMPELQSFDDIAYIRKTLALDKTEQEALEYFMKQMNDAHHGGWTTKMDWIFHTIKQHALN
Chain of recombinant human PI3Kα (6-His(p110-p85α)) (P27986 whole entry partner): as the sequence (P27986 whole entry partner) above
Chain of recombinant human PI3Kγ ((aa144-1102)-6His) (P48736 144-1102): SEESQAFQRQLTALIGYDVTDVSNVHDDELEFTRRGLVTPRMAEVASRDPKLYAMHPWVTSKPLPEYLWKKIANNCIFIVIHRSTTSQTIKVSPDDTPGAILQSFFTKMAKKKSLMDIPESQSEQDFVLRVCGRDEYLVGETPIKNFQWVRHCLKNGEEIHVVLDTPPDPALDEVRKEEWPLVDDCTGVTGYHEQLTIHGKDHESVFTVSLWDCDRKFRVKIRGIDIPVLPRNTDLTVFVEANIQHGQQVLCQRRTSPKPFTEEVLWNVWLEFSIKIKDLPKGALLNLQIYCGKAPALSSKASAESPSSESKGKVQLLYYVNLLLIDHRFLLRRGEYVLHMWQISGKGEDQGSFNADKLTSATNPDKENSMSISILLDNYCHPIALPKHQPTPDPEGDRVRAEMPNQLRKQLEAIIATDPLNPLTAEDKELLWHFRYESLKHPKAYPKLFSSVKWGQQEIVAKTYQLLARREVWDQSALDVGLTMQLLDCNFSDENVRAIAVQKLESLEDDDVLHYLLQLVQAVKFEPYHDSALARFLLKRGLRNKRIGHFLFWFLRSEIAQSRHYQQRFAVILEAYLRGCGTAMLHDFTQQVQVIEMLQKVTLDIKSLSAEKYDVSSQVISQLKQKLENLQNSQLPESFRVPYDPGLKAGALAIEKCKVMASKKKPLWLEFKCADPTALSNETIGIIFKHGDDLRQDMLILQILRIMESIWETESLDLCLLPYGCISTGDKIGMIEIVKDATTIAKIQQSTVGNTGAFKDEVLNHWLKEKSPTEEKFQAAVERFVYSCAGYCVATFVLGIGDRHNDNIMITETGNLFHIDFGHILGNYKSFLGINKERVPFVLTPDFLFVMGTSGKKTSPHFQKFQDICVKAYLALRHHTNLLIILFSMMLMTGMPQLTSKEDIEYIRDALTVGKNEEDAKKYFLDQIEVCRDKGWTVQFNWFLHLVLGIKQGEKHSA

IC50 [1]	IC50 [2]	IC50 [3]	IC50 [4]	Structure (SMILES)
0.5 nM	14 nM	0.9 nM	325 nM	CNS(=O)(=O)c1cc(-c2sc(Nc3cccc(N4CC[C@@H](O)C4=O)n3)nc2C)cc2c1C(=O)N([C@@H](C)C1CC1)C2 [Example 54, 2-[(1S)-1-Cyclopropylethyl]-6-[2-({6-[(3R)-3-hydroxy-2-oxopyrrolidin-1-yl]pyridin-2-yl}amino)-4-methyl-1,3-thiazol-5-yl]-N-methyl-3-oxo-2,3-dihydro-1H-isoindole-4-sulfonamide]
1.1 nM	40 nM	0.9 nM	386 nM	CNS(=O)(=O)c1cc(-c2sc(Nc3cccc(N4C[C@H](O)CC4=O)n3)nc2C)cc2c1C(=O)N([C@@H](C)C1CC1)C2 [Example 55, 2-[(1S)-1-Cyclopropylethyl]-6-[2-({6-[(4R)-4-hydroxy-2-oxopyrrolidin-1-yl]pyridin-2-yl}amino)-4-methyl-1,3-thiazol-5-yl]-N-methyl-3-oxo-2,3-dihydro-1H-isoindole-4-sulfonamide]
0.5 nM	26 nM	1 nM	249 nM	CNS(=O)(=O)c1cc(-c2sc(Nc3cccc(N4CC[C@H](O)C4=O)n3)nc2C)cc2c1C(=O)N([C@@H](C)C1CC1)C2 [Example 56, 2-[(1S)-1-Cyclopropylethyl]-6-[2-({6-[(3S)-3-hydroxy-2-oxopyrrolidin-1-yl]pyridin-2-yl}amino)-4-methyl-1,3-thiazol-5-yl]-N-methyl-3-oxo-2,3-dihydro-1H-isoindole-4-sulfonamide]

More lines, now with the values behind:

Structure (SMILES)	IC50 [1]	IC50 [2]	IC50 [3]	IC50 [4]
CNS(=O)(=O)c1cc(-c2sc(Nc3cccc(N4C(=O)CC[C@H]4CO)n3)nc2C)cc2c1C(=O)N([C@@H](C)C1CC1)C2 [Example 57, 2-[(1S)-1-Cyclopropylethyl]-6-[2-({6-[(2S)-2-(hydroxymethyl)-5-oxopyrrolidin-1-yl]pyridin-2-yl}amino)-4-methyl-1,3-thiazol-5-yl]-N-methyl-3-oxo-2,3-dihydro-1H-isoindole-4-sulfonamide]	0.7 nM	11 nM	1.2 nM	85 nM
CNS(=O)(=O)c1cc(-c2sc(Nc3cccc(N4C(=O)CC[C@@H]4CO)n3)nc2C)cc2c1C(=O)N([C@@H](C)C1CC1)C2 [Example 58, 2-[(1S)-1-Cyclopropylethyl]-6-[2-({6-[(2R)-2-(hydroxymethyl)-5-oxopyrrolidin-1-yl]pyridin-2-yl}amino)-4-methyl-1,3-thiazol-5-yl]-N-methyl-3-oxo-2,3-dihydro-1H-isoindole-4-sulfonamide]	2.9 nM	43 nM	1.2 nM	998 nM
CNS(=O)(=O)c1cc(-c2sc(Nc3cccc(N4CCN(CCO)CC4=O)n3)nc2C)cc2c1C(=O)N([C@@H](C)C1CC1)C2 [Example 59, 2-[(1S)-1-Cyclopropylethyl]-6-[2-({6-[4-(2-hydroxyethyl)-2-oxopiperazin-1-yl]pyridin-2-yl}amino)-4-methyl-1,3-thiazol-5-yl]-N-methyl-3-oxo-2,3-dihydro-1H-isoindole-4-sulfonamide]	0.7 nM	27 nM	0.9 nM	481 nM
Cc1nc(Nc2cccc(N3CC[C@H](O)C3=O)n2)sc1-c1cc2c(c(S(=O)(=O)NC(C)C)c1)C(=O)N([C@@H](C)C(F)(F)F)C2 [Example 60, 6-[2-({6-[(3S)-3-Hydroxy-2-oxopyrrolidin-1-yl]pyridin-2-yl}amino)-4-methyl-1,3-thiazol-5-yl]-3-oxo-N-(propan-2-yl)-2-[(2S)-1,1,1-trifluoropropan-2-yl]-2,3-dihydro-1H-isoindole-4-sulfonamide]	0.5 nM	57 nM	1.2 nM	322 nM
CC[C@H](C)N1Cc2cc(-c3sc(Nc4cccc(N5CCOCC5=O)n4)nc3C)cc(S(=O)(=O)NC)c2C1=O [Example 62, 2-[(2S)-Butan-2-yl]-N-methyl-6-(4-methyl-2-{[6-(3-oxomorpholin-4-yl)pyridin-2-yl]amino}-1,3-thiazol-5-yl)-3-oxo-2,3-dihydro-1H-isoindole-4-sulfonamide]	2.1 nM	162 nM	0.8 nM	1150 nM
CNS(=O)(=O)c1cc(-c2sc(Nc3cccc(N4CCNC4=O)n3)nc2C)cc2c1C(=O)N([C@@H](C)C(F)(F)F)C2 [Example 63, N-Methyl-6-(4-methyl-2-{[6-(2-oxoimidazolidin-1-yl)pyridin-2-yl]amino}-1,3-thiazol-5-yl)-3-oxo-2-[(2S)-1,1,1-trifluoropropan-2-yl]-2,3-dihydro-1H-isoindole-4-sulfonamide]	0.7 nM	32 nM	1.2 nM	274 nM
